Assay results taken from patent publication US20090176696A1, “Methods And Compositions For Modulating An Immune Response” (priority 2006, published 2009).
Entries after “also recorded” stand apart in the source; their conditions may differ.

How the values were obtained:
Bone marrow-derived DCs = assay: Surface expression of MHC Class II and costimulatory molecules on DCs by immunofluorescence analysis; assay type: cell-based, BALB/c mice
Description: Bone marrow-derived DCs from BALB/c mice were cultured for 6 hours with (i) TCT (10 μg/ml) or medium alone, then stimulated with B. pertussis LPS at (ii) 10 ng/ml and (iii) 100 ng/ml for a further 12 hours and analysed for surface expression of MHC Class II and costimulatory molecules by immunofluorescence analysis with Abs specific for MHC Class II (a), CD86 (b), and ICAM-1 (c). (FIG. 5).

[1] = system: Bone marrow-derived dendritic cells (BMDCs); assay: Cytokine production (ELISA) by BMDCs pre-treated with TCT, then stimulated with TLR agonists; assay type: cell-based, BALB/c mice
Description: Bone marrow-derived dendritic cells (BMDCs) from BALB/c mice were pre-treated with TCT (10 μg/ml) for 1, 6 and 12 hours before being stimulated with a range of concentrations of the TLR2 agonist, Pam-3Csk (10, 100, 1000 ng/ml), the TLR4 agonist, B. pertussis LPS (100, 1000, 10,000 pg/ml) and the TLR9 agonist, CpG (10, 100, 1000 ng/ml) for a further 12 hours. The concentration range chosen for each TLR agonist was based on preliminary experiments. Cytokine and chemokine concentrations were evaluated by ELISA.

[2] = system: BMDC with CD4+ T cells from OVA TCR transgenic mice; assay: TCT pre-treated BMDC cultured with OVA and CD4+ T cells from OVA TCR Tg mice; cytokines by ELISA; assay type: cell-based; details: DC pre-treated with TCT 10 μg/ml for 2 hours; supernatant after 4 days
Description: Dendritic cells act as antigen presenting cells and also serve to direct the induction of distinct T cell responses. Therefore, we examined the influence of TCT on dendritic cells and their ability to promote T cell responses in vitro. Bone marrow-derived dendritic cells DC (BMDC) were cultured with CD4^+ T cells (4×10^5) from OVA T cell receptor (TCR) transgenic (Tg) mice. BMDC were pre-treated with TCT (10 μg/ml) or medium only for 2 hours prior to the addition of antigen (OVA 0.2-5 μg/ml) and CD4^+ T cells purified from the spleens of OVA TCR Tg mice. OVA-specific cytokine production was measured in supernatant taken after 4 days by ELISA.

[3] = system: KLH-specific T cell responses; assay: Footpad immunisation with KLH (PBS, alum or LPS) with or without TCT; popliteal lymph node cytokines; assay type: in vivo, BALB/c mice
Description: BALB/c mice were injected subcutaneously into the footpad with either PBS alone, KLH (20 μg), KLH adsorbed to alum, KLH+LPS (10 μg) or KLH+TCT (10 or 25 μg), KLH+LPS+TCT or KLH+TCT adsorbed to alum. 5 days later mice were sacrificed and the popiliteal LNs were removed. Single LN cell suspensions were cultured in the presence of increasing concentrations of KLH (2-50 μg/ml) or PMA/CD3 or medium as positive and negative controls respectively. Supernatants were taken 3 days later and tested for IFN-γ, IL-10, IL-4 and IL-5 by ELISA. Results are mean (+/−SD) values for 5 mice per group.

[4] = system: hamster tracheal epithelial (HTE) cells; details: isolated cultured HTE cells; cited from earlier work
[5] = system: KLH-specific T cell and antibody responses; assay: TCT injection 6 hours before immunisation with KLH or KLH with alum; ex vivo spleen and lymph node responses and antibody titres; assay type: in vivo, BALB/c mice
Description: Cohorts of BALB/c mice were injected sub-cutaneously (s.c.) into the flank with PBS or TCT alone, and then immunised sub-cutaneously with KLH or KLH with alum 6 hours later. The adaptive immune response was assessed 14 days later by stimulating spleen and local inguinal lymph node cells with antigen ex vivo. Spleen (FIG. 6A) and lymph node (FIG. 6B) cell suspensions were cultured in the presence of various concentrations of KLH (2, 10, 50 μg/ml) and PMA/anti-CD3 or medium were used as positive and negative controls respectively. Supernatants were collected 72 hours later, fresh medium was added to the wells and cells were incubated overnight. At day 4, 2 μCi of ^3H thymidine was added to each well. Plates were incubated for a further 6 hours, and ^3H incorporation was determined.
In addition, supernatants were tested for IFN-gamma, IL-10, IL-4 and IL-5 by ELISA (spleen—FIG. 7 and lymph nodes—FIG. 8). KLH-specific antibody titres were also determined by ELISA (FIG. 9).

[6] = system: Bone marrow-derived dendritic cells (BMDCs); assay: Cytokine production (ELISA) by BMDCs pre-treated with TCT, then stimulated with TLR agonists; assay type: cell-based, BALB/c mice; remark: listed apart in the source
[7] = TCT 10 μg/ml for 1, 6, 12 hours, Pam-3Csk 10, 100, 1000 ng/ml for 12 hours
[8] = TCT 10 μg/ml pre-treatment (particularly 1 hour), Pam-3Csk, B. pertussis LPS, CpG for 12 hours
[9] = KLH and LPS, co-administration of TCT
[10] = KLH in alum, TCT 10 or 25 μg/mouse
[11] = KLH in alum, treatment with TCT
[12] = co-administration of TCT with KLH in PBS
[13] = TCT 6 hours before KLH and alum
[14] = TCT 6 hours before KLH only or KLH and alum
[15] = TCT 6 hours before alum adsorbed KLH, day 14
[16] = TCT 6 hours before immunisation KLH

## CC(=O)NC1C(OC2C3COC(O3)C(NC(C)=O)C2OC(C)C(=O)NC(C)C(=O)NC(CCC(=O)NC(CCCC(N)C(=O)NC(C)C(=O)O)C(=O)O)C(=O)O)OC(CO)C(O)C1O (stereo not shown) [TCT, N-acetylglucosaminyl-1,6-anhydro-N-acetylmuramylalanyl-γ-glutamyldiaminopimelylalanine]
Bone marrow-derived DCs; 6 hours TCT pre-treatment
  B. pertussis LPS induced expression of the other costimulatory molecules (CD86, ICAM-1): did not modulate
Bone marrow-derived DCs; LPS 10 or 100 ng/ml, 6 hours TCT pre-treatment
  MHC Class II expression induced with B. pertussis LPS: reduced
Bone marrow-derived DCs; TCT (10 μg/ml) alone
  MHC Class II expression on DCs: did not influence
  co-stimulatory molecule expression on DCs: did not influence
[1]; LPS 10,000 pg/ml, TCT pre-treatment 1 and 6 hours
  IL-10 production by B. pertussis LPS: significant enhancement
[1]; TCT 10 μg/ml for 1, 6, 12 hours, CpG 10, 100, 1000 ng/ml for 12 hours
  IL-10 production in response to the TLR-9 agonist CpG: enhances
[1]; TCT 10 μg/ml for 1, 6, 12 hours, LPS 100, 1000, 10000 pg/ml for 12 hours
  IL-6 production in response to the TLR-4 agonist B. pertussis LPS: enhances
[1]; [7]
  IL-6 production in response to the TLR-2 agonist Pam-3Csk: enhances
  IL-10 production in response to the TLR-2 agonist Pam-3Csk: enhances
[1]; [8]
  IL-6 production by all the TLR agonists examined: significantly enhanced
  IL-10 production by all the TLR agonists examined: significantly enhanced
[1]; TCT 10 μg/ml pre-treatment, B. pertussis LPS
  IL-12p40 production induced by LPS: significantly reduced
[1]; TCT 10 μg/ml pre-treatment, Pam-3Csk
  IL-12p40 production induced by Pam-3Csk: significantly reduced
[1]; TCT alone (10 μg/ml), no TLR agonist
  production of cytokines and chemokines examined: did not induce
[2]
  OVA-specific IFN-γ production: did not affect
  OVA-specific IL-4 production: significantly reduced
  OVA-specific IL-5 production: significantly reduced
  OVA-specific IL-13 production: significantly reduced
[3]; [9]
  IFN-γ production promoted with LPS: not affected
  IL-10 production promoted with LPS: not affected
[3]; [10]
  IL-4 response, draining lymph node cells: significantly reduced
  IL-5 response, draining lymph node cells: significantly reduced
[3]; [11]
  IFN-γ production, draining lymph node cells: not significantly affected
  IL-10 production, draining lymph node cells: not significantly affected
[3]; [12]
  IFN-γ response: enhanced
  IL-10 response: enhanced
[4]
  DNA synthesis: inhibit DNA synthesis
[5]; [13]
  IFN-gamma production, spleen cells: reduced
  IL-4 production, spleen cells: reduced
  IL-5 production, spleen cells: reduced
  KLH-specific IL-10 production by lymph node cells: severely impaired; also recorded: attenuated
[5]; TCT 6 hours before KLH and alum, p<0.001
  KLH-specific IL-10 production by spleen cells: significant reduction
[5]; [14]
  antigen-specific IgG1 titres: no significant effect
  antigen-specific IgG2a titres: no significant effect
  total KLH-specific IgG production: no significant effect
[5]; [15]
  proliferation response to KLH, lymph node cells: reduction
  proliferation response to KLH, spleen cells: reduction
[5]; [16]
  Antigen-specific IL-5 production, lymph node cells: reduced
  antigen-specific IL-4 production, lymph node cells: reduced
[5]; TCT before immunisation with KLH and PBS
  IFN-gamma production, spleen cells: reduced
[5]; mice immunised with KLH and PBS
  proliferation response, spleen cells: reduced
[5]; mice immunised with KLH and alum
  antigen-specific IFN-gamma, lymph node cells: abrogated
[6]
  IL-10 production by dendritic cells in synergy with the TLR4 agonist MPL: enhances
